The conditions of series [1]: sulfasalazine 1 gram; ref 5 (supplement); cited from earlier work.
Series [2] is described as follows: in vitro. The conditions noted are these: human, U2OS-HA-hNTCP cells.
The target in series [3] is T1, human NTCP (Homo sapiens, UniProt Q14973).
T1 sequence (Q14973 1-349): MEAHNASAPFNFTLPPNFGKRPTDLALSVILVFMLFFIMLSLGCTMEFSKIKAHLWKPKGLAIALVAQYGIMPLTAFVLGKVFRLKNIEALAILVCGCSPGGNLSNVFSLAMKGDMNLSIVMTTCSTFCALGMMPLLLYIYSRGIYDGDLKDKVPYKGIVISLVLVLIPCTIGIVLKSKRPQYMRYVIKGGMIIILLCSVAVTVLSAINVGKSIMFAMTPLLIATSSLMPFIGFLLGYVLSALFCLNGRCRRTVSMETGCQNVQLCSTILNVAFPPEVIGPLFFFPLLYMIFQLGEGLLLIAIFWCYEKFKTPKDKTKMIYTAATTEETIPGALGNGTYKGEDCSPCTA
Put plainly: Taurocholate uptake inhibition studies in U2OS-HA-hNTCP cells. The arrangement: HA; expressed in transfected cells. It counts as cell-based. The procedure:
(§1) For MDCK or MDCK-hASBT cells 70.000 cells/well were plated in 24-well plates, followed by 24 hours 10 mM sodium butyrate (Sigma-Aldrich) stimulation the next day. Cells were used in the inhibition studies 24 hours (U2OS cell lines) or 48 hours (MDCK cell lines) later. Inhibition studies with mNTCP transiently transfected cells were conducted 48–72 hours after transfection.
(§2) Medium was aspirated from the wells and cells were washed once with 250 µL uptake buffer. Subsequently, cells were pre-incubated with drug in 150 µL uptake buffer for 10 minutes at 37 °C. Taurocholate uptake was initiated by addition of 100 µL uptake buffer containing taurocholate (final concentration 10 µM TC spiked with tritium-labeled TC) and cells were incubated for 2 minutes at 37 °C. Subsequently, cells were washed 4 times with ice-cold PBS and lysed with 0.05% SDS in water. Radioactivity was measured by liquid scintillation counting.

Series [4] deals with HBV.
In series [5] the target is T2, mouse NTCP (Mus musculus, UniProt O08705).
T2 construct: expressed in transfected cells; host or cells: U2OS (transient transfection, PEI)
T2 sequence (O08705 1-362): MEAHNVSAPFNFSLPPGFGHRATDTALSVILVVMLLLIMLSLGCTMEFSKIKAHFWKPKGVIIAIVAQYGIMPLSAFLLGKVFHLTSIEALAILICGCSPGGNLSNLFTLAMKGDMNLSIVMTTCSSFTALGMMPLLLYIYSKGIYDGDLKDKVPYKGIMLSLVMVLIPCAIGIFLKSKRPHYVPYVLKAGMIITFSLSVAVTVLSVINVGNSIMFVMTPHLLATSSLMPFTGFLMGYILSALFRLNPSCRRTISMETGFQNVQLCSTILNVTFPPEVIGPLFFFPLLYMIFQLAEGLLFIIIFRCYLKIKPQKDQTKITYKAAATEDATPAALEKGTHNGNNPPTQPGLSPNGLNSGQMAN
The series is described as follows: Taurocholate uptake in U2OS cells transiently transfected with mouse NTCP. The class given is cell-based. Particulars: at the calculated IC50 value for hNTCP. The procedure: U2OS and MDCK cells were grown in Dulbecco’s modified Eagle’s medium (DMEM, Sigma-Aldrich), supplemented with 10% FCS (Gibco), 1% L-glutamine (Lonza), and 1% penicillin/streptomycin (Lonza). […] Transient transfection of U2OS cells with mouse NTCP (mNTCP) was done with PEI reagent (Brunschwig, Basel, Switzerland). Shortly, U2OS cells were seeded one day prior to transfection in 24-well plates. On the day of transfection, 0.5 µg DNA was mixed with 100 µl unsupplemented DMEM and 3 µg/µl PEI. After 10–15 minute incubation at RT, 20 µl of the transfection mix was added to each 24-well. Transfected cells were used in further experiments 48–72 hours later. Cell lines were passaged twice a week at a confluence of 80%, and incubated in a humidified atmosphere of 37 °C + 5% CO2.
as §1, §2

Several values for one entry are separate records, joined by “and”; a condition that tells them apart may be missing. Identical values can stand only once. Entries after “also recorded” stand apart in the source; their conditions may differ. Bounds are passed on as bounds.

Turning to `O=C(O)c1cc(/N=N/c2ccc(S(=O)(=O)Nc3ccccn3)cc2)ccc1O` [Sulfasalazine], the Expected serum concentration in series [1] was 6 µg/ml and ~15 µM. Further, in series [2], the viability at 2 h, 1 µM was 98.1 ± 3%; the viability at 2 h, 10 µM amounted to 90.6 ± 6.9%; the viability at 2 h, 100 µM was 85 ± 9.1%. In series [3] (U2OS-HA-hNTCP cells, both TC uptake and Myrcludex B binding), the “concentration at which NTCP was inhibited in repeated measurements of TC-uptake and Myrcludex B binding” value is listed as at most 10 µM. Moreover, the half-inhibitory concentration (IC50) in series [3] (U2OS-HA-hNTCP cells, concentrations 1 nM to 10 mM, read-out: IC50 for hNTCP-mediated TC uptake) was determined as 9.6 µM. For the same compound, the “Taurocholate uptake into U2OS-HA-hNTCP cells (in words)” value in series [3] (increasing drug concentrations) was “reduced”. Further, in series [4] (HBeAg, HBsAg, HBcAg, concentration-dependent), the “HBV infection in HepaRG cells (in words)” value is given as “reduced HBV/HDV infection; also recorded: reduce”. In addition, in series [4] (HepaRG cells infected with HBV, supernatant day 7 to 10), the “concentration effective in reducing HBsAg” value was at least 50 µM. Moreover, in series [4] (HepaRG cells, day 10 post HBV infection, 50 µM), the “number of HBcAg positive stained cells” value is given as “mild reduction”. The “inhibition of mouse Ntcp-mediated taurocholate uptake compared with human NTCP” value in series [5] is given as “inhibited similarly as human NTCP”.

Source of the values: paper PMC5681660, “Reduced hepatitis B and D viral entry using clinically applied drugs as novel inhibitors of the bile acid transporter NTCP” (Scientific Reports, 2017).
